In patent US20160326142A1, “PYRAZOLE CARBOXAMIDE COMPOUNDS, COMPOSITIONS AND METHODS OF USE” (Genentech, Inc., priority 2012, published 2016):

biological target: T1, ITK (Homo sapiens, UniProt Q08881); test: ITK enzyme assay (Caliper or LCMS peptide phosphorylation); type: biochemical; conditions: purified ITK (Invitrogen PV3875), 20 μM ATP, Ki by Morrison's quadratic equation
T1 construct: purchased Invitrogen PV3875
T1 sequence (Q08881 1-620): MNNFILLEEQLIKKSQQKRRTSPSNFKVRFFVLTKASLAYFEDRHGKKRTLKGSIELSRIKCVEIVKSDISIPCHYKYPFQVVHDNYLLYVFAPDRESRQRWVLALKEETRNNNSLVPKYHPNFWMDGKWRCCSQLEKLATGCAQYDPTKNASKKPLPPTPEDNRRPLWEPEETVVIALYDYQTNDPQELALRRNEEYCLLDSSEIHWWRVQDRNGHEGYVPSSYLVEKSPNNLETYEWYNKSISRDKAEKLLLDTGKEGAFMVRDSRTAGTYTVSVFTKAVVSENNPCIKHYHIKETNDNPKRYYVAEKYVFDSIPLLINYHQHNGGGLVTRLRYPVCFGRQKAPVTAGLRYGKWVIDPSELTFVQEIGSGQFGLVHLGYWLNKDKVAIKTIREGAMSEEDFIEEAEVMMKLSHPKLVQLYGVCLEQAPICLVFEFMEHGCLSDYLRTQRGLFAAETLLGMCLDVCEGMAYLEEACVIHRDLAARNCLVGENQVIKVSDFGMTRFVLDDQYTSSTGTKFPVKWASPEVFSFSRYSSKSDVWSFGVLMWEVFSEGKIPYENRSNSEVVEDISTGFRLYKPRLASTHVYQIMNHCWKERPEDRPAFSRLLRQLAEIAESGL
Method: The ability of purified ITK (Invitrogen PV3875) to catalyze peptide phosphorylation is monitored using a Caliper LabChip 3000 microfluidic unit (Caliper assay) or by liquid chromatography-mass spectrometry (LCMS) using a Waters Acquity system (LCMS assay). […] Reactions are quenched by the addition of 2,2′,2″,2′″-(ethane-1,2-diyldinitrilo)tetraacetic acid (50 mM final). Non-phosphorylated substrate and phosphorylated product peptides are separated and quantified using a Caliper LabChip 3000 instrument. […] Reactions are quenched by the addition of trichloroacetic acid (5% v/v final). Non-phosphorylated substrate and phosphorylated product peptides are separated by ultra performance LC and detected by a coupled triple quadrupole MS device applying multiple reaction monitoring (MRM) for quantification. The area of the MRM-extracted mass signal is used to assess the inhibition by test compounds. Equilibrium dissociation constant (Ki) values for ITK inhibitors are calculated from plots of activity vs. inhibitor concentration using Morrison's quadratic equation that accounts for the potential of tight binding, and by also applying the conversion factor that accounts for competitive inhibition and the concentration of ATP used in the assay relative to its apparent Michaelis constant (Km,app).

| Structure (SMILES) | Ki [nM] |
| --- | --- |
| CC1(C)CCc2c(C(=O)Nc3cnn(C(CCN)c4ccccc4)c3)n[nH]c2C1 (single isomer, unassigned) [Example 42a, N-(1-(3-amino-1-phenylpropyl)-1H-pyrazol-4-yl)-6,6-dimethyl-4,5,6,7-tetrahydro-1H-indazole-3-carboxamide] | 10 |
| CC1(C)CCc2c(C(=O)Nc3cnn(C(CCN)c4ccccc4)c3)n[nH]c2C1 (single isomer, unassigned) [Example 42b, N-(1-(3-amino-1-phenylpropyl)-1H-pyrazol-4-yl)-6,6-dimethyl-4,5,6,7-tetrahydro-1H-indazole-3-carboxamide] | 0.9 |
| CN1CCC(C(c2ccccc2)n2cc(NC(=O)c3n[nH]c4c3CCC(C)(C)C4)cn2)CC1 (single isomer, unassigned) [Example 43a, 6,6-dimethyl-N-(1-((1-methylpiperidin-4-yl)(phenyl)methyl)-1H-pyrazol-4-yl)-4,5,6,7-tetrahydro-1H-indazole-3-carboxamide] | 0.2 |
| CN1CCC(C(c2ccccc2)n2cc(NC(=O)c3n[nH]c4c3CCC(C)(C)C4)cn2)CC1 (single isomer, unassigned) [Example 43b, 6,6-dimethyl-N-(1-((1-methylpiperidin-4-yl)(phenyl)methyl)-1H-pyrazol-4-yl)-4,5,6,7-tetrahydro-1H-indazole-3-carboxamide] | 6.2 |
| CC1(C)CCc2c(C(=O)Nc3cnn(C(c4ccccc4)C4(F)CCNCC4)c3)n[nH]c2C1 (single isomer, unassigned) [Example 44a, N-(1-((4-fluoropiperidin-4-yl)(phenyl)methyl)-1H-pyrazol-4-yl)-6,6-dimethyl-4,5,6,7-tetrahydro-1H-indazole-3-carboxamide] | 6 |
| CC1(C)CCc2c(C(=O)Nc3cnn(C(c4ccccc4)C4(F)CCNCC4)c3)n[nH]c2C1 (single isomer, unassigned) [Example 44b, N-(1-((4-fluoropiperidin-4-yl)(phenyl)methyl)-1H-pyrazol-4-yl)-6,6-dimethyl-4,5,6,7-tetrahydro-1H-indazole-3-carboxamide] | 0.2 |
| CC1(C)CCc2c(C(=O)Nc3cnn(C(c4ccccc4)C4CN(S(C)(=O)=O)C4)c3)n[nH]c2C1 (single isomer, unassigned) [Example 45a, 6,6-dimethyl-N-(1-((1-(methylsulfonyl)azetidin-3-yl)(phenyl)methyl)-1H-pyrazol-4-yl)-4,5,6,7-tetrahydro-1H-indazole-3-carboxamide] | 370 |
| CC1(C)CCc2c(C(=O)Nc3cnn(C(c4ccccc4)C4CN(S(C)(=O)=O)C4)c3)n[nH]c2C1 (single isomer, unassigned) [Example 45b, 6,6-dimethyl-N-(1-((1-(methylsulfonyl)azetidin-3-yl)(phenyl)methyl)-1H-pyrazol-4-yl)-4,5,6,7-tetrahydro-1H-indazole-3-carboxamide] | 48 |
| Cc1cccc(C(C2CNC2)n2cc(NC(=O)c3n[nH]c4c3CCC(C)(C)C4)cn2)c1 (single isomer, unassigned) [Example 47a, N-(1-(azetidin-3-yl(m-tolyl)methyl)-1H-pyrazol-4-yl)-6,6-dimethyl-4,5,6,7-tetrahydro-1H-indazole-3-carboxamide] | 2 |
| Cc1cccc(C(C2CNC2)n2cc(NC(=O)c3n[nH]c4c3CCC(C)(C)C4)cn2)c1 (single isomer, unassigned) [Example 47b, N-(1-(azetidin-3-yl(m-tolyl)methyl)-1H-pyrazol-4-yl)-6,6-dimethyl-4,5,6,7-tetrahydro-1H-indazole-3-carboxamide] | 9 |

The remaining lines, values ahead:

| Ki [nM] | Structure (SMILES) |
| --- | --- |
| 10 | CC1(C)CCc2c(C(=O)Nc3cnn(C(c4ccccc4)C4(F)CNC4)c3)n[nH]c2C1 (single isomer, unassigned) [Example 49a, N-(1-((3-fluoroazetidin-3-yl)(phenyl)methyl)-1H-pyrazol-4-yl)-6,6-dimethyl-4,5,6,7-tetrahydro-1H-indazole-3-carboxamide] |
| 2 | CC1(C)CCc2c(C(=O)Nc3cnn(C(c4ccccc4)C4(F)CNC4)c3)n[nH]c2C1 (single isomer, unassigned) [Example 49b, N-(1-((3-fluoroazetidin-3-yl)(phenyl)methyl)-1H-pyrazol-4-yl)-6,6-dimethyl-4,5,6,7-tetrahydro-1H-indazole-3-carboxamide] |
| 260 | O=C(Nc1cnn(Cc2ccccc2)c1)c1n[nH]c2c1CCC1(CCCO1)C2 (single isomer, unassigned) [Example 50a, N-(1-benzyl-1H-pyrazol-4-yl)-1′,4,4′,5,5′,7′-hexahydro-3H-spiro[furan-2,6′-indazole]-3′-carboxamide] |
| 620 | O=C(Nc1cnn(Cc2ccccc2)c1)c1n[nH]c2c1CCC1(CCCO1)C2 (single isomer, unassigned) [Example 50b, N-(1-benzyl-1H-pyrazol-4-yl)-1′,4,4′,5,5′,7′-hexahydro-3H-spiro[furan-2,6′-indazole]-3′-carboxamide] |
| 160 | CC1(O)CCc2c(C(=O)Nc3cnn(Cc4ccccc4)c3)n[nH]c2C1 (single isomer, unassigned) [Example 51a, N-(1-benzyl-1H-pyrazol-4-yl)-6-hydroxy-6-methyl-4,5,6,7-tetrahydro-1H-indazole-3-carboxamide] |
| 0.2 | CN(C)CCC(c1ccccc1)n1cc(NC(=O)c2n[nH]c3c2CC2CC2(C)C3)cn1 (single isomer, unassigned) [Example 52a, N-(1-(3-(dimethylamino)-1-phenylpropyl)-1H-pyrazol-4-yl)-5a-methyl-1,4,4a,5,5a,6-hexahydrocyclopropa[f]indazole-3-carboxamide] |
| 17 | CN(C)CCC(c1ccccc1)n1cc(NC(=O)c2n[nH]c3c2CC2CC2(C)C3)cn1 (single isomer, unassigned) [Example 52b, N-(1-(3-(dimethylamino)-1-phenylpropyl)-1H-pyrazol-4-yl)-5a-methyl-1,4,4a,5,5a,6-hexahydrocyclopropa[f]indazole-3-carboxamide] |
| 2 | CN(C)CCC(c1ccccc1)n1cc(NC(=O)c2n[nH]c3c2CC2CC2(C)C3)cn1 (single isomer, unassigned) [Example 52c, N-(1-(3-(dimethylamino)-1-phenylpropyl)-1H-pyrazol-4-yl)-5a-methyl-1,4,4a,5,5a,6-hexahydrocyclopropa[f]indazole-3-carboxamide] |
| 100 | CN(C)CCC(c1ccccc1)n1cc(NC(=O)c2n[nH]c3c2CC2CC2(C)C3)cn1 (single isomer, unassigned) [Example 52d, N-(1-(3-(dimethylamino)-1-phenylpropyl)-1H-pyrazol-4-yl)-5a-methyl-1,4,4a,5,5a,6-hexahydrocyclopropa[f]indazole-3-carboxamide] |
| 5 | CC1(C)CCc2c(C(=O)Nc3cnn(C(CO)c4ccccc4)c3)n[nH]c2C1 (single isomer, unassigned) [Example 53a, N-(1-(2-hydroxy-1-phenylethyl)-1H-pyrazol-4-yl)-6,6-dimethyl-4,5,6,7-tetrahydro-1H-indazole-3-carboxamide] |
| 29 | CC1(C)CCc2c(C(=O)Nc3cnn(C(CO)c4ccccc4)c3)n[nH]c2C1 (single isomer, unassigned) [Example 53b, N-(1-(2-hydroxy-1-phenylethyl)-1H-pyrazol-4-yl)-6,6-dimethyl-4,5,6,7-tetrahydro-1H-indazole-3-carboxamide] |
| 1 | CCC(c1cccnc1)n1cc(NC(=O)c2n[nH]c3c2CCC(C)(C)C3)cn1 (single isomer, unassigned) [Example 54a, 6,6-dimethyl-N-(1-(1-(pyridin-3-yl)propyl)-1H-pyrazol-4-yl)-4,5,6,7-tetrahydro-1H-indazole-3-carboxamide] |
| 6 | CCC(c1cccnc1)n1cc(NC(=O)c2n[nH]c3c2CCC(C)(C)C3)cn1 (single isomer, unassigned) [Example 54b, 6,6-dimethyl-N-(1-(1-(pyridin-3-yl)propyl)-1H-pyrazol-4-yl)-4,5,6,7-tetrahydro-1H-indazole-3-carboxamide] |
| 5 | CC1(C)CCc2c(C(=O)Nc3cnn(C(c4ccccc4)C(C)(C)O)c3)n[nH]c2C1 (single isomer, unassigned) [Example 55a, N-(1-(2-hydroxy-2-methyl-1-phenylpropyl)-1H-pyrazol-4-yl)-6,6-dimethyl-4,5,6,7-tetrahydro-1H-indazole-3-carboxamide] |
